Results on 22 compounds are retold here after patent US12479927B2, “Compounds comprising cleavable linker and uses thereof” (priority 2017, dated 2025).

For orientation: IC50 means the point on the concentration scale where inhibition reaches its midpoint.

Chain of Escherichia coli β-galactosidase (P00722 2-1024): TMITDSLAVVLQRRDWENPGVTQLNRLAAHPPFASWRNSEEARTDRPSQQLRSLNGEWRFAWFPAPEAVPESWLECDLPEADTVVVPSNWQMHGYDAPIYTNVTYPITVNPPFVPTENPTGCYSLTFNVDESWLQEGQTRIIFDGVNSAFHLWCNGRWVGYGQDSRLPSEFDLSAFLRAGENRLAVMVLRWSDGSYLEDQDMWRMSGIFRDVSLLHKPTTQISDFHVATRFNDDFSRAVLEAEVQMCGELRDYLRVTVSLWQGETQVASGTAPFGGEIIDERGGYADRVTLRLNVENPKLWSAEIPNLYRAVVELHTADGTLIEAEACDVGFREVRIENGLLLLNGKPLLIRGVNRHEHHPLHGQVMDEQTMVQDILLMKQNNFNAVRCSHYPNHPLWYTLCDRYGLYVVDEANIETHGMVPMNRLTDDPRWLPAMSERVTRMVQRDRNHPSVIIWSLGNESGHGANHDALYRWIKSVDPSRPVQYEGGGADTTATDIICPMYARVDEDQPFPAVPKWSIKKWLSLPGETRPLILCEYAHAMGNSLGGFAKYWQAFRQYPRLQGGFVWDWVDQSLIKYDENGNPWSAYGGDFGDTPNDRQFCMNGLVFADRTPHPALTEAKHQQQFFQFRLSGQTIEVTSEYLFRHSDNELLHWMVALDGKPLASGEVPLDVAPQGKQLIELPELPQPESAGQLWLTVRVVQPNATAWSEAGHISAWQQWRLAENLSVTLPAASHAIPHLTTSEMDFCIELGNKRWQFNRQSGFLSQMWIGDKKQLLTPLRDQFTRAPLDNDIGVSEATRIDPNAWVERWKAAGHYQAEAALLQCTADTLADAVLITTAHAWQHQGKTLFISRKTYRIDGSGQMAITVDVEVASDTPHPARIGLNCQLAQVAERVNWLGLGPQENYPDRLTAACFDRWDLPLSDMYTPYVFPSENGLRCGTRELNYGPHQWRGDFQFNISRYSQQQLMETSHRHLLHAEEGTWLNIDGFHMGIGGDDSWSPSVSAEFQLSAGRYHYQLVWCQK

The test system of one data set is KB cancer cells. The experiment in a line: cells. In kind it is cell-based. The conditions noted are these: Homo sapiens, KB, read-out: KB cell IC50(nM). On the procedure:
KB cancer cells were collected and seeded in 24-well plates at a density of 30,000 cells per well in 2 mL of medium, and cultured for 24 hours. Then, the serial dilutions of compound C-1 obtained in Example 108 were treated from 30 nM to 0.0096 nM, the serial dilutions of compound C-2 obtained in Example 109 were treated from 1000 nM to 0.32 nM, serial dilutions of the compound C-3 obtained in Example 110 and the compound C-7 obtained in Example 114 were treated from 25 nM to 0.0016 nM, and serial dilutions of the drug MMAF-OMe were treated from 10 nM to 0.0097 nM. The serial dilutions of compounds C-5 and C-6 obtained in Example 112 and Example 113 were treated from 100 nM to 0.0001 nM, and the serial dilutions of drug seco-DUBA were treated from 100 nM to 0.001 nM. Serial dilutions of the compounds C-4 and C-9 obtained in Example 111 and Example 116 were treated from 1000 nM to 0.001 nM, and the serial dilutions of drug CBI dimer were treated by from 10 nM to 0.00001 nM. Serial dilutions of the compound C-8 obtained in Example 115 and the drug CBI-indole were treated from 100 nM to 0.0001 nM. After 72 hours, 96 hours, or 144 hours of incubation, 0.2 mL of 3-(4,5-dimethylthiazol-2-yl)-2,5-diphenyltetrazolium bromide (MTT) dye, dissolved in PBS buffer solution (5 mg/mL), was added to each well of the plates. The formazans formed by reduction of the MTT dye by mitochondrial oxidoreductases in the living cells were dissolved in DMSO, and measured using the absorbance at 550 nm.
Regarding `COc1cc2[nH]c(C(=O)N3C[C@@H](CCl)c4c3cc(O)c3cccc(C)c43)cc2cc1OCCN(C)C` [CBI-indole, reference compound], the half-inhibitory concentration (IC50) amounted to 0.07 nM.

The data set is the same for the next values; noted with them: Homo sapiens, KB; MTT; 72 hours, 96 hours, or 144 hours of incubation; read-out: KB cell IC50.
Regarding `Cc1cccc2c(O)cc3c(c12)[C@H](CCl)CN3C(=O)c1cn2cc(NC(=O)c3ccc(O)cc3)ccc2n1` [Seco-DUBA, reference compound], the IC50 worked out at 0.18 nM.

The data set is the same for the next values; noted with them: MTT; 72 hours, 96 hours, or 144 hours of incubation; read-out: KB cell IC50.
`CCc1c2c(nc3ccc(OS(=O)(=O)Oc4cc(C(=O)NCCOCCOCCOCCn5cc(CCC(=O)N[C@H](CCCCN)C(=O)NCCOCCOCCNC(=O)CC[C@@H](NC(=O)c6ccc(NCc7cnc8nc(N)[nH]c(=O)c8n7)cc6)C(=O)O)nn5)ccc4O[C@@H]4O[C@H](CO)[C@H](O)[C@H](O)[C@H]4O)cc13)-c1cc3c(c(=O)n1C2)COC(=O)[C@]3(O)CC` [Compound C-2]: the IC50 was more than 500 nM. On to `NCCCC[C@@H](NC(=O)CCc1cn(CCOCCOCCOCCNC(=O)c2ccc(O[C@@H]3O[C@H](CO)[C@H](O)[C@H](O)[C@H]3O)c(OS(=O)(=O)Oc3cc4c(c5ccccc35)[C@H](CCl)CN4C(=O)CCCC(=O)N3C[C@@H](CCl)c4c3cc(O[C@@H]3O[C@H](CO)[C@H](O)[C@H](O)[C@H]3O)c3ccccc43)c2)nn1)C(=O)NCCOCCOCCNC(=O)CC[C@@H](NC(=O)c1ccc(NCc2cnc3nc(N)[nH]c(=O)c3n2)cc1)C(=O)O` [Compound C-4], for which the IC50 was 0.02 nM.

Turning to `NCCCC[C@@H](NC(=O)CCc1cn(CCOCCOCCOCCNC(=O)c2ccc(O[C@@H]3O[C@H](CO)[C@H](O)[C@H](O)[C@H]3O)c(OS(=O)(=O)Oc3cc4c(c5ccccc35)[C@H](CCl)CN4C(=O)c3cn4cc(NC(=O)c5ccc(O)cc5)ccc4n3)c2)nn1)C(=O)NCCOCCOCCNC(=O)CC[C@@H](NC(=O)c1ccc(NCc2cnc3nc(N)[nH]c(=O)c3n2)cc1)C(=O)O` [Compound C-6], the half-maximal inhibitory concentration (IC50) turned out to be 0.45 nM. In the case of `COc1cc2[nH]c(C(=O)N3C[C@@H](CCl)c4c3cc(OS(=O)(=O)Oc3cc(C(=O)NCCOCCOCCOCCn5cc(CCC(=O)N[C@H](CCCCN)C(=O)NCCOCCOCCNC(=O)CC[C@@H](NC(=O)c6ccc(NCc7cnc8nc(N)[nH]c(=O)c8n7)cc6)C(=O)O)nn5)ccc3O[C@@H]3O[C@H](CO)[C@H](O)[C@H](O)[C@H]3O)c3cccc(C)c43)cc2cc1OCCN(C)C` [Compound C-8], the concentration for half-maximal inhibition (IC50) was 0.12 nM.

As for `CC(=O)Oc1cc2c(c3ccccc13)[C@H](CCl)CN2C(=O)CCCC(=O)N1C[C@@H](CCl)c2c1cc(OS(=O)(=O)Oc1cc(C(=O)NCCOCCOCCOCCn3cc(CCC(=O)N[C@H](CCCCN)C(=O)NCCOCCOCCNC(=O)CC[C@@H](NC(=O)c4ccc(NCc5cnc6nc(N)[nH]c(=O)c6n5)cc4)C(=O)O)nn3)ccc1O[C@@H]1O[C@H](CO)[C@H](O)[C@H](O)[C@H]1O)c1ccccc21` [Compound C-9], the IC50 was 0.1 nM.

Another data set deals with T1, Human β-galactosidase (Homo sapiens, UniProt P16278).
T1 construct: purchased R&D 6464-GH-020
T1 sequence (P16278 29-677): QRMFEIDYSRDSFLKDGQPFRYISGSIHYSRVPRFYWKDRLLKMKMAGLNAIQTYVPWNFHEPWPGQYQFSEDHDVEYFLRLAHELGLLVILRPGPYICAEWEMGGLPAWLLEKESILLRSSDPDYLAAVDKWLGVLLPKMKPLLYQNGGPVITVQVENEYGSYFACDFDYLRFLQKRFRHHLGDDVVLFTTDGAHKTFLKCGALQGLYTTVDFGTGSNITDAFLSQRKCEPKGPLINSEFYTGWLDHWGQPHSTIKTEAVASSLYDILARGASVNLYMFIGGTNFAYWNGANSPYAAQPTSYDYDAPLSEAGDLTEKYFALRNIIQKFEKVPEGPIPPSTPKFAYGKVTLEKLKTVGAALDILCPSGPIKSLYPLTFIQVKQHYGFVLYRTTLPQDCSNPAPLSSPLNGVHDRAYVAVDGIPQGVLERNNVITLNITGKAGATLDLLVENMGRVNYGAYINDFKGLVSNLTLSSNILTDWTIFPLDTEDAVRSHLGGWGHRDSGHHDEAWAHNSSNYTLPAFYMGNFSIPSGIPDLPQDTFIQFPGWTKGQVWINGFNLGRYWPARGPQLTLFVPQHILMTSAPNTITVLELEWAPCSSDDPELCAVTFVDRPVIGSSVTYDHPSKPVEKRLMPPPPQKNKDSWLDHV
The experiment in a line: Enzymatic cleavage assay, Method 2. Format: biochemical. The conditions noted are these: recombinant enzyme, Method 2, pH 7.4, 37° C., HPLC, read-out: TG release t1/2(min). How it is done: Method 2) Human β-galactosidase
MPS used as a standard material was prepared as a solution to have a concentration of 500 μM in PBS buffer solution. […] Then, 140 μL of 0.1 mg/mL enzyme solution was added thereto, thereby preparing an enzyme reaction solution in a total amount of 700 μL. The reaction mixture was incubated at 37° C. Human β-galactosidase enzyme (R&D 6464-GH-020) was used in the reaction mixture.
In the case of `CC(C)(C)OC(=O)NC(Cc1ccc(OS(=O)(=O)Oc2ccccc2O[C@@H]2O[C@H](C(=O)O)[C@@H](O)[C@H](O)[C@H]2O)cc1)C(=O)O` (stereo partly shown) [Compound A-3], the half-life at 100 μM came to 10.7 min.

For a further data set, the target named is Escherichia coli β-galactosidase (Escherichia coli, UniProt P00722). In words: in vitro. Particulars: recombinant enzyme, pH 7.4. How it is done:
Method 1. Escherichia coli β-galactosidase
MPS used as a standard material was dissolved in PBS buffer solution to make 500 uM solution. […] This was followed by the addition of enzyme solution (14 μL of 1 mg/mL). When comparing with human β-galactosidase, 21 μL of enzyme solution (1 mg/mL) was added to achieve the same molar concentration, and the compound of the present invention and MPS each having an amount of 140 μL and […] of the buffer solution (pH 7.4) were mixed. The resulting reaction mixture was incubated at 37° C. Escherichia coli β-galactosidase enzyme (Sigma G4155) was used in the reaction mixture. The enzyme reaction solution was aliquoted at 0 min before the reaction and at a predetermined time after the reaction, respectively, wherein each aliquot was 70 μL. Then, the remaining compound of the present invention or MPS, and a material liberated by the enzyme reaction were quantitatively analyzed by HPLC.
Consider `CC(C)(C)OC(=O)NC(Cc1ccc(OS(=O)(=O)Oc2cc(C(=O)NCCOCCOCCOCCN=[N+]=[N-])ccc2O[C@@H]2O[C@H](CO)[C@H](O)[C@H](O)[C@H]2O)cc1)C(=O)O` (stereo partly shown) [Compound A-2], for which the half-life at 100 μM stood at 3.71 ± 0.22 min.

Turning to `Nc1nc(OCc2ccc(OS(=O)(=O)Oc3ccccc3OC3O[C@H](CO)[C@H](O)[C@H](O)[C@H]3O)cc2)c2ncn([C@@H]3O[C@H](CO)C(O)[C@@H]3O)c2n1` (stereo partly shown) [Compound A-4], the half-life at 100 μM is less than 5 min.

Take `CC(C)(C)OC(=O)NC(Cc1ccc(OS(=O)(=O)Oc2cc(CCC(=O)NCCOCCOCCOCCN=[N+]=[N-])ccc2OC2O[C@H](CO)[C@H](O)[C@H](O)[C@H]2O)cc1)C(=O)O` (stereo partly shown) [Compound A-6]: the half-life at 100 μM worked out at 4.6 ± 1.72 min. For the compound `O=C(OCCc1cccnc1)OCc1ccc(OS(=O)(=O)Oc2ccccc2O[C@@H]2O[C@H](CO)[C@H](O)[C@H](O)[C@H]2O)cc1` [Compound A-9], the half-life at 100 μM is less than 5 min. In the case of `O=C(Cc1cccnc1)OCc1ccc(OS(=O)(=O)Oc2ccccc2O[C@@H]2O[C@H](CO)[C@H](O)[C@H](O)[C@H]2O)cc1` [Compound A-10], the half-life at 100 μM is less than 5 min. On to `CC(C)(C)OC(=O)NC(Cc1ccc(OS(=O)(=O)Oc2cc3ccccc3cc2O[C@@H]2O[C@H](CO)[C@H](O)[C@H](O)[C@H]2O)cc1)C(=O)O` (stereo partly shown) [Compound A-12], for which the half-life at 100 μM is less than 5 min. As to `Cc1cn([C@H]2CC(O)[C@@H](CO)O2)c(=O)nc1OCc1ccc(OS(=O)(=O)Oc2ccccc2O[C@@H]2O[C@H](CO)[C@H](O)[C@H](O)[C@H]2O)cc1` (stereo partly shown) [Compound A-13], the half-life at 100 μM is less than 5 min. Consider `CC(OCN(CCN(C)C)C(=O)OCc1ccc(OS(=O)(=O)Oc2ccccc2OC2O[C@H](CO)[C@H](O)[C@H](O)[C@H]2O)cc1)c1ccccc1` (stereo partly shown) [Compound A-17], for which the half-life at 100 μM was less than 1 min. For `CC(C)(C)OC(=O)NCCN(CC(=O)O)C(=O)Cn1cnc2c(OCc3ccc(OS(=O)(=O)Oc4ccccc4OC4O[C@H](CO)[C@H](O)[C@H](O)[C@H]4O)cc3)nc(N)nc21` (stereo partly shown) [Compound A-18], the half-life at 100 μM was less than 5 min. As for `CCC(C)[C@H]([C@H](CC(=O)N1CCC[C@@H]1[C@@H](OC)[C@H](C)C(=O)NC(Cc1ccccc1)C(=O)O)OC)N(C)C(=O)[C@H](NC(=O)[C@@H](C(C)C)N(C)C(=O)OCc1ccc(OS(=O)(=O)Oc2cc(C(=O)NCCOCCOCCOCCN=[N+]=[N-])ccc2O[C@H]2O[C@H](CO)[C@H](O)[C@H](O)[C@H]2O)cc1)C(C)C` (stereo partly shown) [Compound B-3], the half-life at 100 μM is less than 10 min. With `C[C@]12CC[C@@H]3c4ccc(OS(=O)(=O)Oc5cc(C(=O)NCCOCCOCCOCCN=[N+]=[N-])ccc5O[C@@H]5O[C@H](CO)[C@H](O)[C@H](O)[C@H]5O)cc4CC[C@H]3[C@@H]1CC[C@@H]2O` [Compound B-6], the half-life at 100 μM was less than 5 min. Take `COc1ccc(/C=C\c2cc(OC)c(OC)c(OC)c2)cc1OS(=O)(=O)Oc1cc(C(=O)NCCOCCOCCOCCN=[N+]=[N-])ccc1O[C@@H]1O[C@H](CO)[C@H](O)[C@H](O)[C@H]1O` [Compound B-7]: the half-life at 100 μM was less than 5 min. The same measure, in the same setting: the same measure for `CSCC[C@H](NC(=O)[C@H](Cc1ccccc1)NC(=O)CNC(=O)CNC(=O)[C@@H](N)Cc1ccc(OS(=O)(=O)Oc2ccccc2OC2O[C@H](CO)[C@H](O)[C@H](O)[C@H]2O)cc1)C(=O)O` (stereo partly shown) [Compound B-9]: less than 5 min; for `CC/C(=C(\c1ccccc1)c1ccc(OCC[N+](C)(C)Cc2c(OC)cc(OS(=O)(=O)Oc3cc(C(=O)NCCOCCOCCOCCN=[N+]=[N-])ccc3OC3O[C@H](CO)[C@H](O)[C@H](O)[C@H]3O)cc2OC)cc1)c1ccccc1` (stereo partly shown) [Compound B-11]: less than 5 min.
